From paper PMC11828983 (Scientific Reports, 2025)

What was measured:
α3 GlyR (homomeric) = molecular target: T1, α3 GlyR (homomeric) (Rattus norvegicus, UniProt P24524); test: whole-cell patch clamp, direct activation; format: cell-based; conditions: no glycine added; agonist; residual glycine not excluded
T1 sequence (P24524 34-464): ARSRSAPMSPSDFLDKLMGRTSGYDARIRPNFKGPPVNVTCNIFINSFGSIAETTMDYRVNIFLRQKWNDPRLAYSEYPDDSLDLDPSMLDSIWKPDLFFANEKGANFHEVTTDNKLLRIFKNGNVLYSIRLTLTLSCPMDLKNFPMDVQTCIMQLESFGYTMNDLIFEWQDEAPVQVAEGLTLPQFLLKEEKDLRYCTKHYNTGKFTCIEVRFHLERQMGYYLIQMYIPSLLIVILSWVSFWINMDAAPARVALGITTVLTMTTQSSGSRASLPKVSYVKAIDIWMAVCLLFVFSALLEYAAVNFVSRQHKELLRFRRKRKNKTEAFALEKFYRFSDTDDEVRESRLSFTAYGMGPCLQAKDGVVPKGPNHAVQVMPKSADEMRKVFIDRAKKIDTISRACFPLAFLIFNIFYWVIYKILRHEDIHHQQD

α1 GlyR (homomeric) = molecular target: T2, α1 GlyR (homomeric) (Rattus norvegicus, UniProt Q546L7); test: whole-cell patch clamp, direct activation; format: cell-based; conditions: no glycine added; agonist; residual glycine not excluded
T2 sequence (Q546L7 29-449): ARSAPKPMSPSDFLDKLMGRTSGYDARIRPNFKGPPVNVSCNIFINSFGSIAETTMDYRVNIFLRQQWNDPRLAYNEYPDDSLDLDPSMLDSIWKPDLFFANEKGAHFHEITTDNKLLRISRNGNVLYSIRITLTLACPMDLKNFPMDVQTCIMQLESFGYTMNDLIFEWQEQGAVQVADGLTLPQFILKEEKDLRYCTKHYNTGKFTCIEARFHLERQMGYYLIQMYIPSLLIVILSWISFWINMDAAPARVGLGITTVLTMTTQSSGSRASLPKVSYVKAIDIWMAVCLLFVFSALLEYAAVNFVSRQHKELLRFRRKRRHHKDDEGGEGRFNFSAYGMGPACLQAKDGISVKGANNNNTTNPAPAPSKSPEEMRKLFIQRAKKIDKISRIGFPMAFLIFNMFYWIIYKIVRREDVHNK

% of maximal glycine current at 100 μM (α3 GlyR (homomeric)): ~ 15% | % of maximal glycine current at 100 μM (α1 GlyR (homomeric)): > 20%
Substance: AM-1488
